Assay results taken from ChEMBL document CHEMBL4184340, “Fragment-Based Discovery of a Potent, Orally Bioavailable Inhibitor That Modulates the Phosphorylation and Catalytic Activity of ERK1/2” (J Med Chem, 2018).

Key:
in vivo [1] = settings: Balb/c, mouse, iv, 0.5 mg/kg
in vivo [2] = settings: Balb/c, mouse, iv, 0.5 mg/kg; remark: listed apart in the source
in vivo [3] = settings: Balb/c, mouse, po, 5 mg/kg
in vivo [4] = settings: Balb/c, mouse, po, 5 mg/kg; remark: listed apart in the source
in vivo [5] = settings: Balb/c, mouse, po, 5 mg/kg; remark: listed apart in the source
in vitro = settings: human, Caco-2

Row | clearance at 24 h (in vivo [1]) [mL/min/kg] | Vd at 24 h (in vivo [2]) [L/kg] | AUC at 24 h (in vivo [3]) [ng·h/mL] | half-life at 24 h (in vivo [4]) [h] | bioavailability at 24 h (in vivo [5]) [%] | Papp at 1 h, 10 µM (in vitro) [×10⁻⁶ cm/s] | Compound
1 | 11 | 0.6 | 3000 | 3 | 41 | 0.7 | O=C(CN1Cc2ccc(-c3nc(NC4CCOCC4)ncc3Cl)cc2C1=O)NC(CO)c1ccccc1 (single isomer, unassigned)
2 | 3.8 | 0.2 | 6900 | 1 | 32 |  | O=C(CN1Cc2ccc(-c3nc(NC4CCOCC4)ncc3Cl)cc2C1=O)NCc1ccccc1
3 | 14 | 0.2 | 530 | 1 | 8 | 17 | CC(C)(C)NC(=O)CN1Cc2ccc(-c3nc(NC4CCOCC4)ncc3Cl)cc2C1=O
4 | 13 | 0.6 | 3700 | 0.8 | 59 | 6.6 | Cc1cccc([C@@H](CO)NC(=O)[C@@H](C)N2Cc3ccc(-c4nc(NC5CCOCC5)ncc4Cl)cc3C2=O)c1
5 | 23 | 1 | 2600 | 0.7 | 70 | 13 | C[C@H](C(=O)N[C@H](CO)c1ccccc1)N1Cc2ccc(-c3nc(NC4CCOCC4)ncc3Cl)cc2C1=O

Continued, molecule first:

Row | Compound | clearance at 24 h (in vivo [1]) [mL/min/kg] | Vd at 24 h (in vivo [2]) [L/kg] | AUC at 24 h (in vivo [3]) [ng·h/mL] | half-life at 24 h (in vivo [4]) [h] | bioavailability at 24 h (in vivo [5]) [%] | Papp at 1 h, 10 µM (in vitro) [×10⁻⁶ cm/s]
6 | COCCN1Cc2ccc(-c3nc(NC4CCOCC4)ncc3Cl)cc2C1=O | 17 | 0.05 | 50 | 1 | 1 | 19
7 | CN(C(=O)CN1Cc2ccc(-c3nc(NC4CCOCC4)ncc3Cl)cc2C1=O)C(C)(C)C | 4.2 | 0.1 | 5900 | 0.7 | 30 | 22
8 | O=C1c2cc(-c3nc(NC4CCOCC4)ncc3Cl)ccc2CN1CCN1CCOCC1 | 15 | 0.2 | 1800 | 2 | 32 | 40
